Consider 24 molecules from patent US8283465B2, “Triazolopyridine compound, and action thereof as prolyl hydroxylase inhibitor or erythropoietin production-inducing agent” (Japan Tobacco Inc., priority 2009, dated 2012).

Structures can show the parent of a compound that is named as a salt. Where two headings read alike, the source gives them in different places.

The target in assay [1] is T1, human PHD2 (Homo sapiens, UniProt Q9GZT9).
T1 construct: made in house; host or cells: Sf9 insect cells (baculovirus, pVL1393 vector)
Nature of the assay: Measurement of human PHD inhibitory activity (TR-FRET, hydroxylation of HIF-1α partial peptide). Conditions: for IC50: human PHD2 enzyme 1 nM, 25° C. 30 min, values consisting solely of numbers. Type of assay: biochemical. On the procedure: Human PHD2 was expressed in insect cell (Sf9 cell). […] The vector and baculovirus were cotransfected into Sf9, and human PHD2 expression baculovirus was isolated in Sf9. By using the virus, human PHD2-expressed cell was prepared. […] The cell lysate was flowed into a column filled with ANTI-FLAG M2 Affinity Gel Freezer Safe (SIGMA), washed, and the N-terminal FLAG-tag-added human PHD2 was eluted and collected.
VBC complex (VHL/Elongin B/Elongin C) was expressed in Escherichia coli (BL21(DE3)). […] After these expression vectors were transfected into Escherichia coli (BL21(DE3)), Escherichia coli was cultured at 37° C. in the medium containing IPTG. The collected Escherichia coli was disrupted by sonication and flowed into a column filled with Ni-NTA superflow (QIAGEN), washed, and the product was eluted and collected. The eluate was flowed into a column filled with Glutathione Sepharose 4B, washed, and the product was eluted and collected. […]
As for human PHD2 enzyme activity, hydroxylation of proline residue contained in the 19 residues of the partial peptide based on the sequence of HIF-1α as a substrate was measured by TR-FRET (Time-Resolved Fluorescence Resonance Energy Transfer) method.
A test compound and a substrate solution were added to a 96-well plate. The reaction was started by addition of a human PHD2 enzyme solution (final concentration 1 nM) to the reaction system. After incubation at 25° C. for 30 min, a stop solution containing EDTA was added, and a VBC complex solution containing europium (Eu) and Xlent was added, and the amount of hydroxylated proline residue was quantified by time-resolved fluorescence spectroscopy. The time-resolved fluorescence in each well was measured, and the human PHD inhibitory activity (%) of the test compound was calculated based on the values of enzyme non-addition well and test compound non-addition well.
For orientation: Time-resolved FRET reads energy transfer from a long-lived donor to a nearby acceptor.

Assay [2] concerns human EPO production, Hep3B cells. In words: Human EPO production activity in Hep3B cells (EPO-ELISA of culture supernatant). Format: cell-based. The conditions noted are these: for production activity (%) at 30 μM in vitro, human EPO: 24 hr, values containing %, relative to maximum production; for EC50: Homo sapiens, 24 hr incubation, values consisting solely of numbers, read-out: EC50 (μM) in vitro, human EPO production activity. On the procedure: The activity of the test compound on human EPO production was measured using Hep3B (AMC) established from human liver-derived cell line.
Hep3B cells were cultured in Eagle-MEM medium containing 10% fetal bovine serum, and the test compound was diluted with dimethyl sulfoxide (DMSO).
Hep3B cells were cultured in a 96-well plate, and a test compound was added at each concentration 24 hr later. After incubation at 37° C. for 24 hr, the culture supernatant was collected. The concentration of human EPO produced in the culture supernatant was measured using a human EPO-ELISA kit (manufactured by StemCell Technologies, 01630) according to the manufacturer's explanation, and the human EPO production activity (%) of the test compound was calculated based on the maximum value of production under the above conditions and the value without addition of the test compound. […] In these Tables, the values consisting solely of numbers show EC50 (μM) and those containing % show human EPO production activity (%) at […].

The mark [3] stands for this setting: read-out: IC50 (μM) in vitro, human PHD inhibitory activity.

T1 sequence (Q9GZT9 whole entry): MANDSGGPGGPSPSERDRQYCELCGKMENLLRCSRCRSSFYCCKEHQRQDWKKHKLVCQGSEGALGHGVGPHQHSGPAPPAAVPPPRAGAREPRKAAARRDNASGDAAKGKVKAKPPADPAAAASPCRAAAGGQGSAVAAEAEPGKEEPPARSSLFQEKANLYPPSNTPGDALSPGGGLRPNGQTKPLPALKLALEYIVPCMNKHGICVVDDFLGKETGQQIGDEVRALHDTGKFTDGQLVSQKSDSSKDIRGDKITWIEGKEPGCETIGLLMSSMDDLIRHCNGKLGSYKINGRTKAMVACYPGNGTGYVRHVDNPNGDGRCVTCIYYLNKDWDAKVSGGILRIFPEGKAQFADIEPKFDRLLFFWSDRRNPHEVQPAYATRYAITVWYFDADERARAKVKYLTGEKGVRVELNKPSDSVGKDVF

Regarding `C[C@@H](NC(=O)c1c(O)cc(CCc2ccccc2)n2ncnc12)C(=O)O` [Example 70, (R)-2-[(7-hydroxy-5-phenethyl[1,2,4]triazolo[1,5-a]pyridine-8-carbonyl)amino] propionic acid hydrochloride], in assay [1] (at 30 μM, values containing %, read-out: inhibitory activity (%) at 30 μM in vitro, human PHD), the inhibition at 30 µM is 38%. The “production activity (%) at 30 μM in vitro, human EPO” value (shortened to “production activity (%) at 30 μM”) in assay [2] turned out to be 1%.

The IC50 is the point on the concentration scale where inhibition reaches its midpoint. The term EC50 denotes the concentration needed to bring the measured effect to its halfway point. On to `C[C@H](NC(=O)c1c(O)cc(-c2cc(F)cc(F)c2)n2ncnc12)C(=O)O` [Example 67, (S)-2-{[5-(3,5-difluorophenyl)-7-hydroxy[1,2,4]triazolo[1,5-a]pyridine-8-carbonyl]amino} propionic acid hydrochloride], for which the IC50 in assay [1] (setting [3]) was 0.9 µM. The EC50 in assay [2] was 14.3 µM.

As to `O=C(O)CNC(=O)c1c(O)cc(CCc2ccc(C3CC3)cc2)n2ncnc12` [Example 38, ({5-[2-(4-cyclopropyl-phenyl)ethyl]-7-hydroxy[1,2,4]trizazolo[1,5-a]pyridine-8-carbonyl}amino)acetic acid hydrochloride], the IC50 in assay [1] (setting [3]) is 0.59 µM. Besides, the EC50 in assay [2] turned out to be 8.7 µM.

Turning to `O=C(O)CNC(=O)c1c(O)cc(CCCc2ccccc2)n2ncnc12` [Example 29, {[7-hydroxy-5-(3-phenylpropyl)[1,2,4]triazolo[1,5-a]pyridine-8-carbonyl]amino}acetic acid], the IC50 in assay [1] (setting [3]) was 0.92 µM. Also, in assay [2], the EC50 was 11.3 µM.

Turning to `CC(C)Cc1cc(O)c(C(=O)NCC(=O)O)c2ncnn12` [Example 43, [(7-hydroxy-5-isobutyl[1,2,4]triazolo[1,5-a]pyridine-8-carbonyl)amino]acetic acid], the IC50 in assay [1] (setting [3]) turned out to be 0.93 µM. In addition, the EC50 in assay [2] turned out to be 23.6 µM.

Regarding `O=C(O)CNC(=O)c1c(O)cc(-c2ccccc2Cl)c2ncnn12` [Example 88, {[8-(2-chlorophenyl)-6-hydroxy[1,2,4]triazolo[1,5-a]pyridine-5-carbonyl]amino} acetic acid], the IC50 in assay [1] (setting [3]) amounted to 0.16 µM. For the same molecule, in assay [2], the “production activity (%) at 30 μM” value amounted to 14%.

Consider `O=C(O)CNC(=O)c1c(O)cc(CCc2ccc(C(F)(F)F)cc2)c2ncnn12` [Example 102, ({6-hydroxy-8-[2-(4-trifluoromethyl phenyl)ethyl] [1,2,4]triazolo[1,5-a]pyridine-5-carbonyl}amino) acetic acid hydrochloride], for which the IC50 in assay [1] (setting [3]) stood at 0.51 µM. The EC50 in assay [2] was found to be 16 µM.

In the case of `O=C(O)CNC(=O)c1c(O)cc(-c2cc(F)cc(C3CC3)c2)n2ncnc12` [Example 52, {[5-(3-cyclopropyl-5-fluorophenyl)-7-hydroxy[1,2,4]triazolo[1,5-a]pyridine-8-carbonyl]amino} acetic acid hydrochloride], in assay [1] (setting [3]), the IC50 came to 0.89 µM. Moreover, the EC50 in assay [2] came to 10.4 µM.

In the case of `O=C(O)CNC(=O)c1c(O)cc(-c2ccc(Cl)cc2)n2ncnc12` [Example 50, {[5-(4-chlorophenyl)-7-hydroxy[1,2,4]triazolo[1,5-a]pyridine-8-carbonyl]amino}acetic acid hydrochloride], the IC50 in assay [1] (setting [3]) was 0.18 µM. In assay [2], the EC50 was 5.6 µM.

Molecule `O=C(O)CNC(=O)c1c(O)cc(CCc2ccccc2)n2ncnc12` [Example 2, [(7-hydroxy-5-phenethyl[1,2,4]triazolo[1,5-a]pyridine-8-carbonyl)amino]acetic acid hydrochloride] registered an IC50 in assay [1] (IC50 (μM) in vitro, human PHD inhibitory activity) of 0.22 µM. The EC50 in assay [2] (Hep3B, 24 h) was determined as 10.9 µM.

Turning to `CC(C)c1cc(O)c(C(=O)NCC(=O)O)c2ncnn12` [Example 35, [(7-hydroxy-5-isopropyl[1,2,4]triazolo[1,5-a]pyridine-8-carbonyl)amino]acetic acid hydrochloride], the IC50 in assay [1] (setting [3]) was determined as 0.88 µM. Further, the “production activity (%) at 30 μM” value in assay [2] was found to be 43%.

Take `O=C(O)CNC(=O)c1c(O)cc(-c2cc(Cl)cc(Cl)c2)c2ncnn12` [Example 89, {[8-(3,5-dichlorophenyl)-6-hydroxy[1,2,4]triazolo[1,5-a]pyridine-5-carbonyl]amino} acetic acid hydrochloride]: the IC50 in assay [1] (setting [3]) worked out at 0.12 µM. Moreover, the EC50 in assay [2] came out at 4.2 µM.

As for `O=C(O)CNC(=O)c1c(O)cc(-c2cccc(C(F)(F)F)c2)c2ncnn12` [Example 110, {[6-hydroxy-8-(3-trifluoromethyl phenyl)[1,2,4]triazolo[1,5-a]pyridine-5-carbonyl]amino} acetic acid hydrochloride], the IC50 in assay [1] (setting [3]) was 0.15 µM. The EC50 in assay [2] stood at 6.5 µM.

Take `O=C(O)CNC(=O)c1c(O)cc(CCc2ccc(F)cc2)c2ncnn12` [Example 90, ({8-[2-(4-fluorophenyl)-ethyl]-6-hydroxy[1,2,4]triazolo[1,5-a]pyridine-5-carbonyl}amino) acetic acid hydrochloride]: the IC50 in assay [1] (setting [3]) amounted to 0.29 µM. For the same molecule, the EC50 in assay [2] was 16.6 µM.

Turning to `Cl.O=C(O)CNC(=O)c1c(O)ccn2c(CCC3CCCCC3)nnc12` [Example 115, {[3-(2-cyclohexylethyl)-7-hydroxy[1,2,4]triazolo[4,3-a]pyridine-8-carbonyl]amino} acetic acid hydrochloride], in assay [1] (setting [3]), the IC50 was determined as 1.8 µM. The “production activity (%) at 30 μM” value in assay [2] turned out to be 0%.

Consider `CCCCc1c(Cl)c(O)c(C(=O)NCC(=O)O)c2ncnn12` [Example 6, [(5-butyl-6-chloro-7-hydroxy[1,2,4]triazolo[1,5-a]pyridine-8-carbonyl)amino]acetic acid hydrochloride], for which, in assay [1] (setting [3]), the IC50 came out at 0.87 µM. Also, the EC50 in assay [2] is 20.8 µM.

Take `O=C(O)CNC(=O)c1c(O)cc(-c2cc(F)cc(Cl)c2)n2ncnc12` [Example 41, {[5-(3-chloro-5-fluorophenyl)-7-hydroxy[1,2,4]triazolo[1,5-a]pyridine-8-carbonyl]amino}acetic acid hydrochloride]: the IC50 in assay [1] (setting [3]) stood at 0.26 µM. The EC50 in assay [2] came out at 9.1 µM.

`O=C(O)CNC(=O)c1c(O)cc(CC2CCC2)n2ncnc12` [Example 53, [(5-cyclobutylmethyl-7-hydroxy[1,2,4]triazolo[1,5-a]pyridine-8-carbonyl)amino] acetic acid hydrochloride]: the IC50 in assay [1] (setting [3]) came out at 0.5 µM. Besides, the EC50 in assay [2] is 8.9 µM.

As for `O=C(O)CNC(=O)c1c(O)cc(-c2cccc(Cl)c2F)n2ncnc12` [Example 56, {[5-(3-chloro-2-fluorophenyl)-7-hydroxy[1,2,4]triazolo[1,5-a]pyridine-8-carbonyl]amino} acetic acid hydrochloride], in assay [1] (setting [3]), the IC50 was 0.19 µM. Also, in assay [2], the EC50 amounted to 8.4 µM.

For the molecule `O=C(O)CNC(=O)c1c(O)cc(-c2ccc(Cl)s2)c2ncnn12` [Example 96, {[8-(5-chlorothiophen-2-yl)-6-hydroxy[1,2,4]triazolo[1,5-a]pyridine-5-carbonyl]amino} acetic acid hydrochloride], the IC50 in assay [1] (setting [3]) stood at 0.29 µM. The EC50 in assay [2] was determined as 5.9 µM.

As for `O=C(O)CNC(=O)c1c(O)cc(C2CCCC2)n2ncnc12` [Example 30, [(5-cyclopentyl-7-hydroxy[1,2,4]triazolo[1,5-a]pyridine-8-carbonyl)amino]acetic acid hydrochloride], the IC50 in assay [1] (setting [3]) amounted to 0.98 µM. The EC50 in assay [2] was 15.4 µM.

For `O=C(O)CNC(=O)c1c(O)cc(C2CCCCCC2)n2ncnc12` [Example 58, [(5-cycloheptyl-7-hydroxy[1,2,4]triazolo[1,5-a]pyridine-8-carbonyl)amino] acetic acid hydrochloride], the IC50 in assay [1] (setting [3]) is 0.55 µM. For the same molecule, the EC50 in assay [2] worked out at 4.7 µM.

In the case of `CCCCCCc1cc(O)c(C(=O)NCC(=O)O)c2ncnn12.Cl` [Example 73, [(5-hexyl-7-hydroxy[1,2,4]triazolo[1,5-a]pyridine-8-carbonyl)amino] acetic acid hydrochloride], the IC50 in assay [1] (setting [3]) was 7.09 µM. Also, in assay [2], the “production activity (%) at 30 μM” value was 34%.

In the case of `O=C(O)CNC(=O)c1c(O)cc(-c2cc(F)cc(F)c2)n2ncnc12` [Example 21, {[5-(3,5-difluorophenyl)-7-hydroxy[1,2,4]triazolo[1,5-a]pyridine-8-carbonyl]amino}acetic acid], the IC50 in assay [1] (setting [3]) turned out to be 0.25 µM. Also, in assay [2], the EC50 turned out to be 12 µM.
